What follows are compounds tested on Human immunodeficiency virus 1 (assay: Antiviral activity against HIV1 infected in human MT4 cells assessed as protection against virus-induced cytopathic effect). Conditions: Human immunodeficiency virus 1, MT4.
Type: functional, organism-based
`CCCN1Cc2cccc3[nH]c(=O)n(c23)C[C@@H]1C` gave an IC50 of 89.1 µM. Work on `C[C@H]1Cn2c(=O)[nH]c3cccc(c32)CN1CC1CC1` yielded an IC50 of 43.7 µM. With `C/C=C/CN1Cc2cccc3[nH]c(=O)n(c23)C[C@@H]1C` the IC50 was 57.5 µM. Compound `C=C(C)CN1Cc2cccc3[nH]c(=O)n(c23)C[C@@H]1C` has an IC50 of 46.8 µM. Work on `C#CCN1Cc2cccc3[nH]c(=O)n(c23)C[C@@H]1C` yielded an IC50 of 575 µM. Work on `C/C=C\CN1Cc2cccc3[nH]c(=O)n(c23)C[C@@H]1C` yielded an IC50 of 34.7 µM. `C=C(CC)CN1Cc2cccc3[nH]c(=O)n(c23)C[C@@H]1C` showed an IC50 of 37.2 µM. With `C/C=C(\C)CN1Cc2cccc3[nH]c(=O)n(c23)C[C@@H]1C` the IC50 was 28.8 µM. Compound `C[C@H]1Cn2c(=O)[nH]c3cccc(c32)CN1C/C=C\c1ccccc1` has an IC50 of 123 µM. In the case of `CC1c2cccc3[nH]c(=S)n(c23)[C@@H](C)[C@H](C)N1CC1CC1` (stereo not given in full), the IC50 is reported as 13.5 µM. For `C=CC(=C)CN1Cc2cccc3[nH]c(=O)n(c23)C[C@@H]1C`, the IC50 was 70.8 µM. Compound `C=C(Br)CN1Cc2cccc3[nH]c(=O)n(c23)C[C@@H]1C` has an IC50 of 61.7 µM. `COC(=O)CN1Cc2cccc3[nH]c(=O)n(c23)C[C@@H]1C` gave an IC50 of 851 µM. `C[C@H]1Cn2c(=O)[nH]c3cccc(c32)CN1Cc1ccco1` was tested, and the IC50 was 107 µM. `C=CCCN1Cc2cccc3[nH]c(=O)n(c23)C[C@@H]1C` was tested, and the IC50 was 50.1 µM. In the case of `C[C@@H]1CN(CC2CC2)Cc2cc(Cl)cc3[nH]c(=S)n1c23`, the IC50 is reported as 2.19 µM. For `CC(C)=CCN1Cc2cccc3nc(O)n(c23)C[C@@H]1C`, the IC50 was 12.6 µM. For `CC(C)=CCN1Cc2cc(Cl)c(Cl)c3nc(S)n(c23)C[C@@H]1C`, the IC50 was 0.0251 µM. Compound `CC(C)=CCN1[C@H](C)Cn2c(=S)[nH]c3cccc(c32)[C@@H]1C` has an IC50 of 1.15 µM. Compound `C=CCN1Cc2cccc3[nH]c(=O)n(c23)C[C@@H]1C` has an IC50 of 70.8 µM. In the case of `CCCCN1Cc2cccc3[nH]c(=O)n(c23)C[C@@H]1C`, the IC50 is reported as 100 µM. `C=C(C)CN1Cc2cccc3[nH]c(=O)n(c23)CC1C` (stereo not given) gave an IC50 of 34.7 µM. For `CCCN1Cc2cccc3[nH]c(=O)n(c23)CC1C` (stereo not given), the IC50 was 60.3 µM. With `CCCN1Cc2cccc3[nH]c(=S)n(c23)CC1C` (stereo not given) the IC50 was 1.66 µM. `C=C(C)CN1Cc2cccc3[nH]c(=O)n(c23)C(C)C1` (stereo not given) was tested, and the IC50 was 31.6 µM. For `CC(C)=CCN1C(C)c2cccc3[nH]c(=O)n(c23)[C@@H](C)[C@H]1C` (relative stereo), the IC50 was 56.2 µM. Work on `CC(C)=CCN1C(C)c2cccc3[nH]c(=S)n(c23)[C@@H](C)[C@H]1C` (relative stereo) yielded an IC50 of 2.24 µM. `CC(C)=CCN1[C@@H](C)Cn2c(=S)[nH]c3cccc(c32)[C@@H]1C` (relative stereo) showed an IC50 of 0.0417 µM.

Same assay, conditions: mt4
For `CC(C)=CCN1Cc2cccc3[nH]c(=S)n(c23)C[C@@H]1C` (stereo in doubt; 1), the pIC50 was 7.36. `CC(C)=CCN1Cc2cccc3[nH]c(=S)n(c23)C[C@@H]1C` (stereo in doubt; 81) gave a pIC50 of 7.01.

Source: ChEMBL document CHEMBL1157041, “Support vector machines: development of QSAR models for predicting anti-HIV-1 activity of TIBO derivatives” (Eur J Med Chem, 2010)
